{"source": "patent US9388425B2", "about": "“Tunable genetic switch for regulating gene expression” (TRUSTEES OF BOSTON UNIVERSITY, priority 2006, dated 2016)", "system": "Rosa26 cells", "test": "Apoptosis and cell death, annexin V and propidium iodide staining, flow cytometry, Rosa26 cells", "format": "cell-based, mouse", "conditions": "indicated levels of IPTG (0, 250 pM, 2.5 μM, 1 mM)", "description": "Rosa26fibroblasts were obtained from embryonic day 14.5 Rosa26-R mice. The cells were maintained in embryonic fibroblast medium (high-glucose DMEM, 10% FBS, penicillin/streptomycin, L-glutamine, and sodium pyruvate) and grown in a humidified 5% CO2, 37CC incubator. These cells were transfected with 0.8 μg of LTRi-cre and LTRi-bax using Lipofectamine 2000 reagent (Invitrogen). The LTRi-cre cells were analyzed by β-galactosidase staining 48 hr after transfection. The LTRi-bax cells were stained and analyzed by flow cytometry 48 hr after transfection. […]\nCells were grown in 12-well plates, and 24 hr after plating, they were transfected with 0.8 μg of LTRi-bax using Lipofectamine 2000 reagent (Invitrogen) per the manufacturer's protocol and exposed to the indicated levels of IPTG. […] Annexin V has a high affinity for phosphatidylserine; therefore, annexin V conjugated with Alexa Fluor 488 can identify apoptotic cells by binding to phosphatidylserine and can be analyzed by flow cytometry measuring the fluorescence emission at 530 nm (FL1). […] It is impermeable to live and apoptotic cells but stains dead cells with red fluorescence. Dead cells appear red and can be analyzed by flow cytometry measuring the red florescence emission >575 nm (FL3). […]", "data": [{"smiles": "CC(C)S[C@@H]1O[C@H](CO)[C@H](O)[C@H](O)[C@H]1O", "note": "[IPTG, isopropyl-β-thiogalactopyranoside]", "values": [{"measurement": "apoptosis or cell death of non-transfected cells exposed to inducer", "value": "no change in apoptosis or cell death"}]}]}
